Assay results published in patent US20240269337A1, “METHOD AND SYSTEM FOR COATING FILTER MEDIA” (MOLECULAR PLASMA GROUP SA, priority 2021, published 2024).
Like-named read-outs stand apart in the source and are kept apart here.

System: Bacteriophage MS2
Type: cell-based
Conditions: for LOG Reduction: plasma coating of precursor on Tyvek substrate, (LOD) = limit of detection

CCCCCCCCCCCCCCCCCC[N+](C)(C)CCC[Si](OC)(OC)OC.[Cl-] [SiQAM, Dimethyloctadecyl[3-(trimethoxysilyl)propyl] ammonium chloride]
LOG Reduction: 1.56 log

C=CC(=O)NCCC[N+](C)(C)C.[Cl-] [APTAC, (3-Acrylamidopropyl)trimethylammonium chloride]
LOG Reduction: 2.1 log

Benzalkonium chloride [reference compound]
LOG Reduction: >3.8 (LOD) log

Citric Acid
Avg. MS2 (log red) (Filter media sample, 6 passes): 2.15 log red | MS2 neutralized (%) (Filter media sample, 6 passes): 99.29% | Avg. MS2 (log red) (Filter media sample, 10 passes): 2.72 log red | MS2 neutralized (%) (Filter media sample, 10 passes): 99.81% | Avg. MS2 (log red) (Filter media sample, 20 passes): 2.46 log red | MS2 neutralized (%) (Filter media sample, 20 passes): 99.65% | Avg. MS2 (log red) (Outer wave sample, 6 passes): 2.13 log red | MS2 neutralized (%) (Outer wave sample, 6 passes): 99.26% | Avg. MS2 (log red) (Outer wave sample, 10 passes): 1.96 log red | MS2 neutralized (%) (Outer wave sample, 10 passes): 98.90% | Avg. MS2 (log red) (Outer wave sample, 20 passes): 2.71 log red | MS2 neutralized (%) (Outer wave sample, 20 passes): 99.81% | LOG Reduction: >5.0 (LOD) log
